Assay results: US20150343016A1, “CHEMICAL ENTITIES AND THERAPEUTIC USES THEREOF” (The Regents of the University of Colorado, a body corporate, priority 2010, published 2015)

How the values were obtained:
Format in all cases: cell-based, human
[1] = system: HN31 Head and Neck Cancer cell line; assay: MTT assay, Bouvardin with ionizing radiation, HN31 (treated on the same day); conditions: HN31 cells
Protocol: (§1) “Combination Index” computation. Combination Indices were calculated using CalcuSyn software (Biosoft), which uses the method of Chou and Talalay. This method first computes drug-induced effect using the Hill Equation: where E is the measured effect; C is the drug concentration; Emax is the full range of drug effect, usually at or near 100%; IC50 is the drug concentration producing the median effect of 50%; and n is the curve shape parameter describing the steepness of the concentration-effect relationship. The Chou and Talalay method then linearizes the Hill Equation by logarithmic transformation as: where fu is the fraction of cells left unaffected after drug exposure, fa is the fraction of cells affected by the exposure, C is the drug concentration used, Cm is the concentration to achieve the median effect, and n is the curve shape parameter. Cm and n are equivalent to IC50 and n, respectively, in the Hill Equation. The values of n (obtained from the slope), nlog(Cm) (obtained from the absolute value of the intercept), and, therefore, Cm are obtained by plotting log(fu−1−1) versus log(C). These numbers are then used to compute the Combination Index (CI) according to the formula: CI=(D)1/(Dx)1+(D)2/(Dx)2 (26). (Dx)1 and (Dx)2 are the doses required to achieve a given effect level for each treatment, i.e. a specified value of Fraction Affected or Fa. (D)1 and (D)2 are the doses of each treatment in a given combination which gives the same Fa.
(§2) The growth inhibitory effects of Bouvardin with ionizing radiation (IR) were evaluated using a modified tetrazolium salt (MTT) assay. In the MTT assay, 1,000 to 2,000 viable cells were plated in 100 uL of growth medium in 96-well plates (Corning, Ithaca, N.Y.). Following an overnight incubation, drug was added in varying concentrations and the plates were irradiated on the same day (co-treatment) or 24 hr later (pre-treatment) and incubated for 6 to 7 days. The tetrazolium salt was added at a concentration of 0.4 mg/mL to each well following the 6- to 7-day treatment. The plates were incubated with the salt for 4 hours at 37° C. At 4 hours, the medium was aspirated off, leaving the dark blue formazan product at the bottom of the wells. The reduced MTT product was solubilized by adding 100 mL of 0.2 N HCl in 75% isopropanol, 23% MilliQ water to each well. Thorough mixing was done using a Titertek multichannel pipetman. The absorbency of each well was measured using an automated plate reader (Molecular Devices, Sunnyvale, Calif.). All experiments were done in triplicate.
MTT assays were used to determine the effect of Bouvardin (concentrations in uM) in combination with ionizing radiation (in Gy, X-axis). FIG. 14 depicts CI values for Bouvardin and radiation on 3 cell lines. Combination Index data from 3 different Head and Neck Cancer cell lines are shown. Black dashed lines represent a CI value of 1. CI values below 1 indicate synergy. 1586 and UM-SCC19 were pre-treated whereas HN31 was treated on the same day.

[2] = system: FaDu cells; assay: MTT assay, Bouvardin with ionizing radiation, FaDu (same-day treatment)
Protocol: as §1
For FIG. 19 MTT assays were used to determine the effect of Bouvardin (concentrations in uM) in combination with ionizing radiation (in Gy). The data from same-day treatment of IR and Bouvardin are shown, for comparison with taxol-Bouvardin combination that were also applied on the same day. In general, CI values were lower for FaDu cells than for Det562 cells in two separate experiments (only one set is shown). On Det562 cells, CI values were about 1 for most combinations. CI value for Det562 cells at 0.001 uM/1Gy and at >0.06 uM are not included in the graph because the values are >10 and would have made smaller values harder to see. On FaDu cells, CI values were below 1 at concentrations of 0.03 or lower, were about 1 for 0.06 uM drug, and were over 1 at higher concentrations.
as §2

[3] = system: 17 cell lines including Head and Neck Squamous Cell Carcinoma and non-small cell lung cancer lines; assay: MTT assays, Bouvardin with radiation, panel of 17 cell lines
Excerpt: The observation that Bouvardin enhanced the effect of radiation on Drosophila larvae led us to question whether this effect would translate to a mammalian system. In order to determine what cell lines should be used to create tumor xenografts in mice, MTT assays for cell viability were used first to test the effects of Bouvardin alone and in combination with radiation in human cancer cells. MTT assays measure cell viability by measuring mitochondrial enzyme function. We used 17 cell lines including Head and Neck Squamous Cell Carcinoma and non-small cell lung cancer lines.
The data for non-small cell lung cancer cell line (H157) is depicted in FIG. 16.
as §2, with “At 4 hours, the medium was aspirated off, leaving the dark blue formazan product at the bottom of the wells. The reduced MTT product was solubilized by adding 100 mL of 0.2 N HCl in 75% isopropanol, 23% MilliQ water to each well. Thorough mixing was done using a Titertek multichannel pipetman.” left out, “All experiments were done in triplicate.” left out

Question: Which results are given for `COc1ccc(C[C@H]2C(=O)N[C@H](C)C(=O)N(C)[C@@H]3C(=O)N(C)[C@@H](Cc4ccc(O)c(c4)Oc4ccc(cc4)[C@H]3O)C(=O)N[C@@H](C)C(=O)N[C@H](C)C(=O)N2C)cc1` (stereo in doubt) [Bouvardin, bouvardin]?
Answer: Combination Index ([1]; Bouvardin 0.001 uM + 1 Gy IR): 4.673; Fraction Affected ([1]; Bouvardin 0.001 uM + 1 Gy IR): 0.165; Combination Index ([1]; Bouvardin 0.001 uM + 2 Gy IR): 1.605; Fraction Affected ([1]; Bouvardin 0.001 uM + 2 Gy IR): 0.292; Combination Index ([1]; Bouvardin 0.001 uM + 4 Gy IR): 0.989; Fraction Affected ([1]; Bouvardin 0.001 uM + 4 Gy IR): 0.478; Combination Index ([1]; Bouvardin 0.003 uM + 1 Gy IR): 1.405; Fraction Affected ([1]; Bouvardin 0.003 uM + 1 Gy IR): 0.362; Combination Index ([1]; Bouvardin 0.003 uM + 2 Gy IR): 0.877; Fraction Affected ([1]; Bouvardin 0.003 uM + 2 Gy IR): 0.463; Combination Index ([1]; Bouvardin 0.003 uM + 4 Gy IR): 0.93; Fraction Affected ([1]; Bouvardin 0.003 uM + 4 Gy IR): 0.535; Combination Index ([1]; Bouvardin 0.006 uM + 1 Gy IR): 0.462; Fraction Affected ([1]; Bouvardin 0.006 uM + 1 Gy IR): 0.574; Combination Index ([1]; Bouvardin 0.006 uM + 2 Gy IR): 0.517; Fraction Affected ([1]; Bouvardin 0.006 uM + 2 Gy IR): 0.602; Combination Index ([1]; Bouvardin 0.006 uM + 4 Gy IR): 1.005; Fraction Affected ([1]; Bouvardin 0.006 uM + 4 Gy IR): 0.559; Combination Index ([1]; Bouvardin 0.01 uM + 1 Gy IR): 0.401; Fraction Affected ([1]; Bouvardin 0.01 uM + 1 Gy IR): 0.731; Combination Index ([1]; Bouvardin 0.01 uM + 2 Gy IR): 0.419; Fraction Affected ([1]; Bouvardin 0.01 uM + 2 Gy IR): 0.747; Combination Index ([1]; Bouvardin 0.01 uM + 4 Gy IR): 0.657; Fraction Affected ([1]; Bouvardin 0.01 uM + 4 Gy IR): 0.73; Combination Index ([1]; Bouvardin 0.03 uM + 1 Gy IR): 0.565; Fraction Affected ([1]; Bouvardin 0.03 uM + 1 Gy IR): 0.753; Combination Index ([1]; Bouvardin 0.03 uM + 2 Gy IR): 0.471; Fraction Affected ([1]; Bouvardin 0.03 uM + 2 Gy IR): 0.782; Combination Index ([1]; Bouvardin 0.03 uM + 4 Gy IR): 1.099; Fraction Affected ([1]; Bouvardin 0.03 uM + 4 Gy IR): 0.717; Combination Index ([1]; Bouvardin 0.06 uM + 1 Gy IR): 0.663; Fraction Affected ([1]; Bouvardin 0.06 uM + 1 Gy IR): 0.778; Combination Index ([1]; Bouvardin 0.06 uM + 2 Gy IR): 0.673; Fraction Affected ([1]; Bouvardin 0.06 uM + 2 Gy IR): 0.785; Combination Index ([1]; Bouvardin 0.06 uM + 4 Gy IR): 1.086; Fraction Affected ([1]; Bouvardin 0.06 uM + 4 Gy IR): 0.756; Combination Index ([1]; Bouvardin 0.1 uM + 1 Gy IR): 0.97; Fraction Affected ([1]; Bouvardin 0.1 uM + 1 Gy IR): 0.825; Combination Index ([1]; Bouvardin 0.1 uM + 2 Gy IR): 1.673; Fraction Affected ([1]; Bouvardin 0.1 uM + 2 Gy IR): 0.789; Combination Index ([1]; Bouvardin 0.1 uM + 4 Gy IR): 1.914; Fraction Affected ([1]; Bouvardin 0.1 uM + 4 Gy IR): 0.784; Combination Index ([1]; Bouvardin 0.3 uM + 1 Gy IR): 1.563; Fraction Affected ([1]; Bouvardin 0.3 uM + 1 Gy IR): 0.837; Combination Index ([1]; Bouvardin 0.3 uM + 2 Gy IR): 1.911; Fraction Affected ([1]; Bouvardin 0.3 uM + 2 Gy IR): 0.826; Combination Index ([1]; Bouvardin 0.3 uM + 4 Gy IR): 2.897; Fraction Affected ([1]; Bouvardin 0.3 uM + 4 Gy IR): 0.8; Combination Index ([1]; Bouvardin 0.6 uM + 1 Gy IR): 2.067; Fraction Affected ([1]; Bouvardin 0.6 uM + 1 Gy IR): 0.85; Combination Index ([1]; Bouvardin 0.6 uM + 2 Gy IR): 2.148; Fraction Affected ([1]; Bouvardin 0.6 uM + 2 Gy IR): 0.849; Combination Index ([1]; Bouvardin 0.6 uM + 4 Gy IR): 4.862; Fraction Affected ([1]; Bouvardin 0.6 uM + 4 Gy IR): 0.797; Combination Index ([1]; Bouvardin 1 uM + 1 Gy IR): 4.673; Fraction Affected ([1]; Bouvardin 1 uM + 1 Gy IR): 0.165; Combination Index ([1]; Bouvardin 1 uM + 2 Gy IR): 1.605; Fraction Affected ([1]; Bouvardin 1 uM + 2 Gy IR): 0.292; Combination Index ([1]; Bouvardin 1 uM + 4 Gy IR): 0.989; Fraction Affected ([1]; Bouvardin 1 uM + 4 Gy IR): 0.478; Bouvardin concentrations at which synergy was seen when combined with radiation ([2]; Det562 and FaDu (FIG. 19)): lower than 0.06 μM; interaction of Bouvardin with IR ([2]; FaDu): a wide range of effects, synergistic to antagonistic; CI values, Bouvardin with IR ([2]; FaDu, 0.06 uM drug): about 1; CI values, Bouvardin with IR ([2]; FaDu, concentrations higher than 0.06 uM): over 1; CI values, Bouvardin with IR ([2]; FaDu, concentrations of 0.03 or lower): below 1; interaction of Bouvardin with radiation across the panel [3]: synergize in most, but not all of these cell lines
